Tests used:
[1] = tested on: aorta of HHcy and HHcy/HG Cbs−/+ mice; test: Endothelium-dependent vascular relaxation to ACh in thoracic aorta after in vivo calpain inhibitor administration; set-up: species or system mouse; conditions: 2 mg/kg BW i.p. daily for 2 weeks, p<0.05
Protocol: Images (Left Panel) and quantification (Right Panel) showing HHcy and HG activates calpain in mouse aortic endothelial cells (MAECs, P0) isolated from CBS^−/+ mice (FIG. 3A). Calpain activity was measured in intact MAECs by the fluorescent substrate t-BOC-Leu-Met-CMAC (T-BOC, 10 μmol/L, 30 min). In FIG. 3B, calpain inhibitors rescued endothelium-dependent vascular relaxation to ACh in the aorta of HHcy CBS^−/+ and HHcy/HG CBS^−/+ mice in the presence of calpain inhibitors in vivo (Left Panel) and ex vivo (Right Panel). Left Panel: Calpain inhibitor MDL28170 (MDL, Sigma #M6690) was administrated in vivo by i.p. injection (2 mg/kg/day, 2 weeks). Right Panel: The arterial rings were incubated with calpain inhibitors: MDL, calpeptin and N-Acetyl-Leu-Leu-Met-CHO (ALLM, 20 μmol/L for all, Enzo life Sciences, PI-100-0005) for 1 hr. […]
Endothelial function was assessed in the mouse thoracic aorta using a multiple-wire myograph (DMT 610) (Cheng et al., 2011, Blood 118:1998-2006; Cheng et al., 2007, Can J Physiol Pharmacol 85:404-412; Cheng et al., 2001, Hypertension 37:433-439). […]

mouse thoracic aorta = test: Endothelium-dependent vascular relaxation to ACh in aortic rings treated ex vivo (multiple-wire myograph); conditions: aortic rings of HHcy/HG-Cbs−/+ mice preincubated with calpain inhibitor 20 μmol/L for 1 hour; p<0.05

MDL28170
endothelial function (endothelium-dependent vascular relaxation to ACh) [1]: largely improved | aortic endothelium-dependent vascular relaxation to ACh (mouse thoracic aorta): markedly improved
